Test results published in US9095136B2, “2-IODO imidazole-derivatives” (BAYER INTELLECTUAL PROPERTY GMBH, priority 2011, dated 2015).
Where “and” joins values, the source holds several entries; their conditions need not be identical. Identical values can stand only once. Marks after values point to notes of the source that are not given here.

Tests used:
Leptosphaeria nodorum = test: Example H: Leptosphaeria nodorum test (wheat)/protective; assay type: in vivo; conditions: protective, 500 ppm, evaluation 8 days after inoculation
Experimental: (§1) Solvent: 49 parts by weight of N,N-dimethylacetamide Emulsifier: 1 part by weight of alkylaryl polyglycol ether To produce a suitable preparation of active compound, 1 part by weight of active compound is mixed with the stated amounts of solvent and emulsifier, and the concentrate is diluted with water to the desired concentration. To test for protective activity, young plants are sprayed with the preparation of active compound at the stated application rate. After the spray coating has dried on, the plants are sprayed with a spore suspension of Leptosphaeria nodorum.

[1] = test system: Blumeria graminis f.sp. hordei; test: Example G: Blumeria graminis test (barley)/protective; assay type: in vivo; conditions: protective, 500 ppm, evaluation 7 days after inoculation
Experimental: Solvent: 49 parts by weight of N,N-dimethylacetamide Emulsifier: 1 part by weight of alkylaryl polyglycol ether To produce a suitable preparation of active compound, 1 part by weight of active compound is mixed with the stated amounts of solvent and emulsifier, and the concentrate is diluted with water to the desired concentration. To test for protective activity, young plants are sprayed with the preparation of active compound at the stated application rate. After the spray coating has dried on, the plants are dusted with spores of Blumeria graminis f.sp. hordei.

Pyricularia oryzae [2] = assay type: in vivo; conditions: rice, protective, 500 ppm, evaluation 7 days after inoculation
Fusarium graminearum = assay type: in vivo; conditions: barley (heading), protective, 500 ppm, evaluation 5 days after inoculation
[3] = log P by HPLC on reversed-phase columns (EEC directive 79/831 Annex V.A8); assay type: physicochemical
Experimental: The log P values were measured according to EEC directive 79/831 Annex V.A8 by HPLC (High Performance Liquid Chromatography) on reversed-phase columns, using the methods below: […] Calibration was carried out using unbranched alkan-2-ones (having from 3 to 16 carbon atoms) with known log P values (the log P values were determined by the retention times using linear interpolation between two successive alkanones). The lambda maX values were determined in the maxima of the chromatographic signals using the UV spectra from 200 nm to 400 nm.

Pyrenophora teres [4] = test: Example K: Pyrenophora teres test (barley)/protective; assay type: in vivo; conditions: protective, 500 ppm, evaluation 8 days after inoculation
Experimental: as §1, with “Pyrenophora teres.” for “Leptosphaeria nodorum.”

Alternaria solani = test: Example A: Alternaria test (tomato)/protective; assay type: in vivo; conditions: protective, 500 ppm, evaluation 7 days after inoculation
Experimental: Solvent: 49 parts by weight of N,N-dimethylformamide Emulsifier: 1 part by weight of alkylaryl polyglycol ether To produce a suitable preparation of active compound, 1 part by weight of active compound is mixed with the stated amounts of solvent and emulsifier, and the concentrate is diluted with water to the desired concentration. […] The plants then remain at 96% rel. atmospheric humidity and a temperature of 20° C.

[5] = test system: Fusarium nivale (var. majus); test: Example M: Fusarium nivale (var. majus) test (wheat)/protective; assay type: in vivo; conditions: protective, 500 ppm, evaluation 5 days after inoculation
Experimental: as §1, with “Fusarium nivale (var. majus).” for “Leptosphaeria nodorum.”

Sphaerotheca fuliginea [6] = test: Example B: Sphaerotheca test (cucumber)/protective; assay type: in vivo; conditions: protective, 500 ppm, evaluation 7 days after inoculation
Experimental: Solvent: 49 parts by weight of N,N-dimethylformamide Emulsifier: 1 part by weight of alkylaryl polyglycol ether To produce a suitable preparation of active compound, 1 part by weight of active compound is mixed with the stated amounts of solvent and emulsifier, and the concentrate is diluted with water to the desired concentration. To test for protective activity, young cucumber plants are sprayed with the preparation of active compound at the stated application rate. 1 day after the treatment, the plants are inoculated with a spore suspension of Sphaerotheca fuliginea. The plants are then placed in a greenhouse at 70% relative air humidity and a temperature of 23° C.

Puccinia triticina = test: Example L: Puccinia triticina test (wheat)/protective; assay type: in vivo; conditions: protective, 500 ppm, evaluation 8 days after inoculation
Experimental: as §1, with “sprayed with spores with a spore” for “sprayed with a spore”, “suspension of Puccinia triticina.” for “suspension of Leptosphaeria nodorum.”

Uromyces appendiculatus [7] = test: Example E: Uromyces test (bean)/protective; assay type: in vivo; conditions: protective, 10 ppm, evaluation 10 days after inoculation
Experimental: (§2) Solvents: 24.5 parts by weight of acetone • 24.5 parts by weight of dimethylacetamide Emulsifier: 1 part by weight of alkylaryl polyglycol ether To produce a suitable preparation of active compound, 1 part by weight of active compound is mixed with the stated amounts of solvent and emulsifier, and the concentrate is diluted with water to the desired concentration. To test for protective activity, young plants are sprayed with the preparation of active compound at the stated application rate. […] The plants are then placed in a greenhouse at about 21° C. and a relative atmospheric humidity of about 90%.

Septoria tritici [8] = test: Example I: Septoria tritici test (wheat)/protective; assay type: in vivo; conditions: protective, 500 ppm, evaluation 21 days after inoculation
Experimental: as §1, with “Septoria tritici.” for “Leptosphaeria nodorum.”

Septoria tritici [9] = test: Example U: preventative in vivo test with Septoria tritici (leaf blotch disease on wheat); conditions: 500 ppm, evaluation 21 to 28 days after inoculation
Experimental: The active compounds tested are prepared by homogenization in a mixture of acetone/Tween/DMSO and then diluted with water to the desired active compound concentration. Wheat plants (cultivar “Scipion”), sown in a 50/50 peat/pozzolana soil substrate and cultivated at 22° C. (12 h)/20° C. (12 h), are treated at the 1-leaf stage (height 10 cm) by spraying with the active compound, prepared as above. As a control, plants are treated with the mixture of acetone/Tween/DMSO/water without the active compound. After 24 hours, the plants are inoculated by spraying the leaves with an aqueous suspension of cryogenically preserved Septoria tritici spores.

Botrytis cinerea = test: Example P: preventative in vivo test with Botrytis cinerea (grey mould); conditions: cucumber, 500 ppm, evaluation 4-5 days after inoculation
Experimental: The active compounds tested are prepared by homogenization in a mixture of acetone/Tween/DMSO and then diluted with water to the desired active compound concentration. Cucumber plants (cultivar “Vert petit de Paris”), sown in a 50/50 peat/pozzolana soil substrate and cultivated at 24° C., are treated at the Z11 cotyledon stage by spraying with the active compound, prepared as above. As a control, plants are treated with the mixture of acetone/Tween/DMSO/water without the active compound. After 24 hours, the plants are inoculated by spraying the cotyledons with an aqueous suspension of cryogenically preserved Botrytis cinerea spores.

Sphaerotheca fuliginea [10] = test: Example V: preventative in vivo test with Sphaerotheca fuliginea (powdery mildew on cucumber); conditions: 500 ppm, evaluation 12 days after inoculation
Experimental: The active compounds tested are prepared by homogenization in a mixture of acetone/Tween/DMSO and then diluted with water to the desired active compound concentration. Cucumber plants (cultivar “Vert petit de Paris”), sown in a 50/50 peat/pozzolana soil substrate and cultivated at 24° C., are treated at the Z11 cotyledon stage by spraying with the active compound, prepared as above. As a control, plants are treated with the mixture of acetone/Tween/DMSO/water without the active compound. After 24 hours, the plants are inoculated by spraying the leaves with an aqueous suspension of Sphaerotheca fuliginea spores. The inoculated cucumber plants are incubated at about 20° C./25° C. and a relative atmospheric humidity of 60/70%.

Phakopsora pachyrhizi = test: Example F: Phakopsora test (soya beans)/protective; assay type: in vivo; conditions: protective, 100 ppm, evaluation 7 days after inoculation
Experimental: Solvents: 24.5 parts by weight of acetone • 24.5 parts by weight of dimethylacetamide Emulsifier: 1 part by weight of alkylaryl polyglycol ether To produce a suitable preparation of active compound, 1 part by weight of active compound is mixed with the stated amounts of solvent and emulsifier, and the concentrate is diluted with water to the desired concentration. To test for protective activity, young plants are sprayed with the preparation of active compound at the stated application rate.

Uromyces appendiculatus [11] = test: Example W: preventative in vivo test with Uromyces appendiculatus (bean rust); conditions: 500 ppm, evaluation 10 days after inoculation
Experimental: The active compounds tested are prepared by homogenization in a mixture of acetone/Tween/DMSO and then diluted with water to the desired active compound concentration. Bean plants (cultivar “Saxa”), sown in a 50/50 peat/pozzolana soil substrate and cultivated at 24° C., are treated at the 2-leaf stage (height 9 cm) by spraying with the active compound, prepared as above. As a control, plants are treated with the mixture of acetone/Tween/DMSO/water without the active compound. After 24 hours, the plants are inoculated by spraying the leaves with an aqueous suspension of Uromyces appendiculatus spores.

Puccinia recondita = test: Example T: preventative in vivo test with Puccinia recondita (brown rust on wheat); conditions: 500 ppm, evaluation 10 days after inoculation
Experimental: The active compounds tested are prepared by homogenization in a mixture of acetone/Tween/DMSO and then diluted with water to the desired active compound concentration. Wheat plants (cultivar “Scipion”), sown in a 50/50 peat/pozzolana soil substrate and cultivated at 22° C. (12 h)/20° C. (12 h), are treated at the 1-leaf stage (height 10 cm) by spraying with the active compound, prepared as above. As a control, plants are treated with the mixture of acetone/Tween/DMSO/water without the active compound. After 24 hours, the plants are inoculated by spraying the leaves with an aqueous suspension of Puccinia recondita spores.

Venturia inaequalis = test: Example D: Venturia test (apple)/protective; assay type: in vivo; conditions: protective, 100 ppm, evaluation 10 days after inoculation
Experimental: as §2, with “Solvent:” for “Solvents:”

Alternaria brassicae = test: Example O: preventative in vivo test with Alternaria brassicae (leaf spot on radish); conditions: 500 ppm, evaluation 5 days after inoculation
Experimental: The active compounds tested are prepared by homogenization in a mixture of acetone/Tween/DMSO and then diluted with water to the desired active compound concentration. Radish plants (cultivar “Pernod Clair”), sown in a 50/50 peat/pozzolana soil substrate and cultivated at 17° C., are treated at the 2-leaf stage by spraying with the active compound, prepared as above. As a control, plants are treated with the mixture of acetone/Tween/DMSO/water without the active compound. After 24 hours, the plants are inoculated by spraying the leaves with an aqueous suspension of Alternaria brassicae spores.

Pyrenophora teres [12] = test: Example R: preventative in vivo test with Pyrenophora teres (net blotch on barley); conditions: 500 ppm, evaluation 12 days after inoculation
Experimental: The active compounds tested are prepared by homogenization in a mixture of acetone/Tween/DMSO and then diluted with water to the desired active compound concentration. Barley plants (cultivar “Plaisant”), sown in a 50/50 peat/pozzolana soil substrate and cultivated at 22° C. (12 h)/20° C. (12 h), are treated at the 1-leaf stage (height 10 cm) by spraying with the active compound, prepared as above. As a control, plants are treated with the mixture of acetone/Tween/DMSO/water without the active compound. After 24 hours, the plants are inoculated by spraying the leaves with an aqueous suspension of Pyrenophora teres spores.

Pyricularia oryzae [13] = assay type: in vivo; conditions: rice, preventative, 500 ppm, evaluation 6 days after inoculation

SMILES	Eff. % [1] [%]	logP ([3]; pH 2.7)	Eff. % (Puccinia triticina) [%]	Eff. % (Uromyces appendiculatus [7])	Eff. % (Septoria tritici [8]) [%]	Efficacy % (Septoria tritici [9]) [%]	Efficacy % (Botrytis cinerea) [%]	Efficacy % (Sphaerotheca fuliginea [10]) [%]	Eff. % (Phakopsora pachyrhizi) [%]	Efficacy % (Uromyces appendiculatus [11]) [%]	Efficacy % (Puccinia recondita) [%]	Eff. % (Venturia inaequalis) [%]	Efficacy % (Alternaria brassicae) [%]	further results
OC(Cc1ccccc1F)(Cn1ccnc1I)C1(Cl)CC1 (stereo not shown) [Example 2]	100	2.05	100	91% and 100%	86	–	–	–	–	–	–	–	–	Eff. % (Leptosphaeria nodorum): 93%; Eff. % (Pyricularia oryzae [2]): 80%; Eff. % (Fusarium graminearum): 92% and 100%; logP ([3]; pH 7.8): 3.02; Eff. % (Pyrenophora teres [4]): 100%; Eff. % (Alternaria solani): 95%; Eff. % [5]: 100%; Eff. % (Sphaerotheca fuliginea [6]): 92%
Fc1ccc([C@]2(Cn3ccnc3I)O[C@H]2c2ccccc2Cl)c(F)c1 (relative stereo) [Example 14, rel-1-{[(2R,3S)-3-(2-chlorophenyl)-2-(2,4-difluorophenyl)oxiran-2-yl]methyl}-2-iodo-1H-imidazole]	90	–	100	–	100	100	97	100	100	100	93	100	–	chromatographic logP ([3]; pH 2.7, log P(HCOOH)): 3.23; chromatographic logP ([3]; pH 2.7, logP): 3.23
Fc1ccc(C2(Cn3ccnc3I)OC2c2ccccc2Cl)cc1 (mixture of isomers) [Example 6]	–	–	–	–	–	–	–	–	–	–	–	–	75	–
Fc1cc(Cl)ccc1C1(Cn2ccnc2I)OC1c1ccccc1Cl (stereo not shown) [Example 11]	–	3.7^[a]	–	–	–	100	92	100	–	97	93	–	–	–
Fc1ccc(C2(Cn3ccnc3I)OC2c2ccccc2Cl)cc1 (stereo not shown) [Example 8]	–	3.09^[a]	–	100%	–	100	–	100	99	100	97	100	88	Efficacy % (Pyrenophora teres [12]): 79%; Efficacy % (Pyricularia oryzae [13]): 75%
